Results on 21 compounds are retold here after ChEMBL document CHEMBL1142688, “Development and preliminary optimization of indole-N-acetamide inhibitors of hepatitis C virus NS5B polymerase” (J Med Chem, 2005).

The target in series [1] is T1, RNA-directed RNA polymerase (Hepacivirus hominis, UniProt O39930). The series can be described thus: Inhibitory activity against RNA dependent RNA polymerase nonstructural protein 5B in hepatitis C virus; n=1.
Series [2] is described as follows: (§1) Cytotoxic concentration against hepatitis C virus. It counts as functional, Hepacivirus hominis.
The next series relates to Hepacivirus hominis. As to the kind of experiment: Concentration to inhibit hepatitis C virus replication by 85%. Format: functional.
For series [3], the target named is T1, RNA-directed RNA polymerase. The series can be described thus: Inhibitory concentration against RNA dependent RNA polymerase nonstructural protein 5B of hepatitis C virus.
Series [4] concerns Hepatitis C virus. As to the kind of experiment: Effective concentration to inhibit RNA replication in hepatitis C virus. Format: functional, organism-based, Hepacivirus hominis.
The subject of series [5] is Hepatitis C virus. The description is as §1. It counts as functional, Hepacivirus hominis.
The target of series [6] is T1, RNA-directed RNA polymerase. As to the kind of experiment: Effective concentration to inhibit the activity of RNA dependent RNA polymerase nonstructural protein 5B in hepatitis C virus; n=1.
Series [7] is described as follows: Half life after administration of 20 mg/kg in dog. Also noted: dose 20 mg/kg. It counts as ADME, organism-based, Canis lupus familiaris. The conditions noted are these: in vivo.
Series [8] is described as follows: Total clearance after administration of 20 mg/kg in dog. It counts as ADME, organism-based, Canis lupus familiaris. The arrangement: dose 20 mg/kg. The conditions noted are these: in vivo.
Series [9] concerns the target T1, RNA-directed RNA polymerase. As to the kind of experiment: Inhibitory concentration against NS5B polymerase of Hepatitis C virus; n=1.

A value given as a limit tells only on which side of the number the result lay.

T1 sequence (O39930 whole entry): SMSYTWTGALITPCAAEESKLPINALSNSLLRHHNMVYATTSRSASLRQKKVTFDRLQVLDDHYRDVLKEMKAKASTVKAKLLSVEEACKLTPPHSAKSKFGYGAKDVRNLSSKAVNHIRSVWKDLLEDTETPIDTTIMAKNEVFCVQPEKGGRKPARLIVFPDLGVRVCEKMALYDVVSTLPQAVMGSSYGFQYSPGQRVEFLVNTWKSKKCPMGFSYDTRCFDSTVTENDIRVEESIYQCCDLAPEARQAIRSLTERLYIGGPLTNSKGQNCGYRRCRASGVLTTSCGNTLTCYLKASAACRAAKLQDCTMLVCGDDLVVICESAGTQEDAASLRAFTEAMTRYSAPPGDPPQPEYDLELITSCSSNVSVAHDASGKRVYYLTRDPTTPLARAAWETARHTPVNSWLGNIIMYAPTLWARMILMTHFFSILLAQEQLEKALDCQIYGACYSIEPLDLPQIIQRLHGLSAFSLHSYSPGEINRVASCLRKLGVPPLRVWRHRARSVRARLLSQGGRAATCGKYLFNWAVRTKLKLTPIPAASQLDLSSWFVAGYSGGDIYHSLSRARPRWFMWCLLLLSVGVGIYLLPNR

For the compound `Cn1c(-c2ccccc2)c(C2CCCCC2)c2ccc(C(=O)O)cc21`, half-maximal inhibition in [1] (IC50) was put at 28 nM. For `CN(C)C(=O)Cn1c(-c2ccccc2Cl)c(C2CCCCC2)c2ccc(C(=O)O)cc21`, the IC50 in series [1] was found to be 372 nM. Besides, the 50% cytotoxic concentration (CC50) in series [2] was more than 50000 nM. As to `O=C(O)c1ccc2c(C3CCCCC3)c(-c3ccccc3)n(CC(=O)N3CCOCC3)c2c1`, inhibition in [1] was half-maximal at 26 nM (IC50). Also, in series [2], the CC50 was more than 50000 nM.

In the series on Hepacivirus hominis, `CN(C)C(=O)Cn1c(-c2ccc(OCc3ccccc3)cc2)c(C2CCCCC2)c2ccc(C(=O)O)cc21` showed a Concentration of 0.3 µM. Half-maximal inhibition in [1] (IC50) required 6 nM. For the same compound, the 50% cytotoxic concentration (CC50) in [2] was more than 50000 nM. For the compound `O=C(O)c1ccc2c(C3CCCCC3)c(-c3ccccc3)n(Cc3ccccc3)c2c1`, in series [1], half-maximal inhibition (IC50) was put at 37 nM.

As for `O=C(O)c1ccc2c(c1)nc(-c1ccc(O)cc1F)n2C1CCCCC1`, in [3], it took 1.4 nM to reach half-maximal inhibition (IC50).

Regarding `O=C(O)c1ccc2c(c1)cc(-c1ccc(O)cc1)n2C1CCCCC1`, the half-maximal inhibitory concentration (IC50) in series [3] amounted to 340 nM. In series [3], `O=C(O)c1ccc2c(c1)nc(-c1ccc(O)cc1)n2C1CCCCC1` yielded an IC50 of 3 nM. On to `O=C(O)c1ccc2c(c1)nc(-c1ccc(OCc3cc(C(=O)N4CCC(O)CC4)ccc3-c3ccc(Cl)cc3)cc1F)n2C1CCCCC1`, for which, in series [3], the IC50 is less than 6 nM. A half-maximal effect in the series on Hepatitis C virus [4] (EC50) was put at 500 nM. As to `O=C(O)c1ccc2c(C3CCCCC3)c(-c3ccccc3)n(S(=O)(=O)c3ccccc3)c2c1`, 485 nM corresponded to half-maximal inhibition in [1] (IC50).

In turn, `COc1ccc(-c2c(C3CCCCC3)c3ccc(C(=O)O)cc3n2CC(=O)N(C)C)cc1` displayed an IC50 in series [1] of 18 nM. Besides, the CC50 in series [2] was more than 50000 nM.

The compound `CN(C)C(=O)Cn1c(-c2cccc(Cl)c2)c(C2CCCCC2)c2ccc(C(=O)O)cc21` displayed an IC50 in series [1] of 40 nM. In [2], the 50% cytotoxic concentration (CC50) was more than 50000 nM. `CS(=O)(=O)NC(=O)Cn1c(-c2ccccc2)c(C2CCCCC2)c2ccc(C(=O)O)cc21` displayed an IC50 in series [1] of 45 nM. Compound `Cc1ccc(-c2c(C3CCCCC3)c3ccc(C(=O)O)cc3n2CC(=O)N2CCOCC2)cc1` displayed a 50% inhibitory concentration (IC50) in series [1] of 11 nM. In the series with Hepatitis C virus [5], this compound registered a CC50 of more than 50000 nM. In [6], this compound showed an EC50 of 300 nM. In turn, `CN(C)C(=O)Cn1c(-c2ccccc2)c(C2CCCCC2)c2ccc(C(=O)O)cc21` came in with an IC50 in [1] of 59 nM. In series [2], this compound registered a 50% cytotoxic concentration (CC50) of more than 50000 nM. The compound further had a half-life in series [7] of 4.8 h. Besides, the clearance in series [8] was found to be 3 mL/min/kg. For `O=C(O)c1ccc2c(C3CCCCC3)c(-c3ccccc3)[nH]c2c1`, in [1], it took 48 nM to reach half-maximal inhibition (IC50).

`O=C(O)c1ccc2c(C3CCCCC3)c(-c3ccccc3)n(CCN3CCOCC3)c2c1` yielded a half-maximal inhibitory concentration (IC50) in [1] of 111 nM. Regarding `Cc1ccc(-c2c(C3CCCCC3)c3ccc(C(=O)O)cc3n2CC(=O)N(C)C)cc1`, in series [1], half-maximal inhibition (IC50) required 17 nM. Moreover, the 50% cytotoxic concentration (CC50) in [2] is more than 50000 nM. For `CN(C)C(=O)Cn1c(-c2cccc(F)c2)c(C2CCCCC2)c2ccc(C(=O)O)cc21` the same measures were 18 nM and more than 50000 nM. For the compound `CN(C)C(=O)Cn1c(-c2ccc(Cl)cc2)c(C2CCCCC2)c2ccc(C(=O)O)cc21`, the concentration for half-maximal inhibition (IC50) in [9] was found to be 15 nM. In series [2], this compound yielded a half-maximal cytotoxic concentration (CC50) of more than 50000 nM. `O=C(O)c1ccc2c(C3CCCCC3)c(-c3ccc(O)cc3)[nH]c2c1` yielded a 50% inhibitory concentration (IC50) in series [3] of 4.8 nM.
